The record followed here is patent US20240067693A1, “POLYPEPTIDES AND USES THEREOF” (MEDIMMUNE LIMITED, priority 2020, published 2024).

Numbered stars: 1 amine (or outer) side, 2 acyl side, 3 side chain; on linkers, the order of the positions; unused ones are H or OH. Bridge positions count the residues as written; N and C are the ends. Square brackets hold non-standard residues; d marks the D form. Side chains are listed from the residue outwards. Peptide text beside a SMILES is read from it. * marks the point of attachment. C20 diacid = O=C(O)CCCCCCCCCCCCCCCCCCC(=O)*; C18 diacid = O=C(O)CCCCCCCCCCCCCCCCC(=O)*; γGlu = O=C(O)[C@H](CCC(=O)[*:2])N[*:1]; Hyp = O=C(O)[C@@H]1C[C@@H](O)CN1; Dab = NCC[C@H](N)C(=O)O; Aib = CC(C)(N)C(=O)O

The target in test [1] is T1, human amylin receptor (calcitonin receptor co-expressed with receptor activity modifying protein, RAMP3) (hAMYR3) (Homo sapiens, UniProt O60896+P30988).
T1 construct: expressed in transfected cells
T1 sequence (P30988 25-474): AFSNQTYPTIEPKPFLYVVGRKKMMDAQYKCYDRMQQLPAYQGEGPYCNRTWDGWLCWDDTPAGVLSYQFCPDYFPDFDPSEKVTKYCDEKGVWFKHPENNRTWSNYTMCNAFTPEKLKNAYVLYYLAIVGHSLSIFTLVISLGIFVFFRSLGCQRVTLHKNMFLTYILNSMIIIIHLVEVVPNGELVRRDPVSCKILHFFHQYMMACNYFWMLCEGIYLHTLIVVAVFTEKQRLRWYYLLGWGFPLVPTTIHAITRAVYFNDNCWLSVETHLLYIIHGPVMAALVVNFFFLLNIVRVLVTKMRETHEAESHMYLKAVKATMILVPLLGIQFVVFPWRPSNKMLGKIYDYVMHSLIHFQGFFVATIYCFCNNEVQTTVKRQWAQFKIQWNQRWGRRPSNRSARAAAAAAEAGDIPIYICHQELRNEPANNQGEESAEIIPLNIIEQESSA
T1 sequence (O60896 24-148 partner): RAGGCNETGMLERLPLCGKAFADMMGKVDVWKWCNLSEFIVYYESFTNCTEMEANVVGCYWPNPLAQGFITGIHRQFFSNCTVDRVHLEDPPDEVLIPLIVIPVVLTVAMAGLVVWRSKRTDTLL
The test can be described thus: cAMP production in 1321N1 cells with stable recombinant expression of human amylin receptor (hAMYR3). It is filed as cell-based. To be noted: for Ratio (selectivity hAMYR vs hCTR, ratio of EC50 values at the two receptors): EC50 hCTR / EC50 hAMYR3; for EC50: cAMP, 1321N1 cells, assay buffer with 0.1% BSA, read-out: EC50 (pM) hAMYR3. Summed up:
(§1)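 Receptor-expressing cells (human receptors in 1321N1, rat receptors in HEK) incubated 30 min at room temperature with peptide in HBSS/HEPES pH 7.4, 0.1% BSA, 0.5 mM IBMX. cAMP read by HTRF; EC50 from 4-parameter fit as % of maximal amylin or calcitonin response.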
A general note: cAMP levels reflect the balance of adenylyl cyclase and phosphodiesterase activity.

The target in test [2] is T2, human calcitonin receptor (hCTR) (Homo sapiens, UniProt P30988).
T2 construct: expressed in transfected cells
T2 sequence (P30988 25-474): T1 sequence (P30988 25-474)
The test can be described thus: cAMP production in 1321N1 cells with stable recombinant expression of human calcitonin receptor (hCTR). Format: cell-based. To be noted: cAMP, 1321N1 cells, assay buffer with 0.1% BSA; read-out: EC50 (pM) hCTR. A digest of the protocol: as §1

As to `CC[C@H](C)[C@H](NC(=O)[C@@H]1CCCN1C(=O)CNC(=O)[C@H](Cc1ccccc1)NC(=O)[C@H](CC(N)=O)NC(=O)C(C)(C)NC(=O)[C@H](CO)NC(=O)[C@H](CO)NC(=O)[C@H](Cc1c[nH]cn1)NC(=O)C(C)(C)NC(=O)[C@H](CC(C)C)NC(=O)[C@H](Cc1ccccc1)NC(=O)[C@H](CC(N)=O)NC(=O)[C@H](C)NC(=O)[C@H](CC(C)C)NC(=O)[C@H](CCCNC(=N)N)NC(=O)[C@H](CCC(N)=O)NC(=O)[C@@H](NC(=O)[C@H](C)NC(=O)[C@@H]1CSSC[C@H](NC(=O)[C@H](CCCCN)NC(=O)[C@@H](N)CCCCNC(=O)CC[C@H](NC(=O)CCCCCCCCCCCCCCCCC(=O)O)C(=O)O)C(=O)N[C@@H](CC(N)=O)C(=O)N[C@@H]([C@@H](C)O)C(=O)N[C@@H](C)C(=O)N[C@@H]([C@@H](C)O)C(=O)N1)[C@@H](C)O)C(=O)N[C@@H](CC(C)C)C(=O)N1CCC[C@H]1C(=O)N1CCC[C@H]1C(=O)N[C@H](C(=O)N[C@@H](CC(N)=O)C(=O)N[C@H](C(=O)NCC(=O)N[C@@H](CO)C(=O)N[C@@H](CC(N)=O)C(=O)N[C@H](C(=O)N1CCC[C@H]1C(N)=O)[C@@H](C)O)C(C)C)[C@@H](C)O` [Peptide 87, K(γE-C18diacid)K[CNTATC]ATQRLANFL(Aib)HSS(Aib)NFGPILPPTNVGSNTP-amide] (H-K([γGlu-C18 diacid])KCNTATCATQRLANFL[Aib]HSS[Aib]NFGPILPPTNVGSNTP-NH2; disulfide 3-8; N-terminus assumed), in test [1], the “Ratio (selectivity hAMYR vs hCTR, ratio of EC50 values at the two receptors)” value is reported as 1 and the EC50 (usually the midpoint of the concentration-response curve) was determined as 71 pM. Also, the EC50 in test [2] came out at 74 pM.

Take `CC[C@H](C)[C@H](NC(=O)[C@H](C)NC(=O)[C@@H]1CCCN1C(=O)[C@H](Cc1ccccc1)NC(=O)[C@H](CC(N)=O)NC(=O)C(C)(C)NC(=O)[C@H](CO)NC(=O)[C@H](CO)NC(=O)[C@H](Cc1c[nH]cn1)NC(=O)[C@@H](NC(=O)[C@H](CC(C)C)NC(=O)[C@H](Cc1ccccc1)NC(=O)[C@H](CC(N)=O)NC(=O)[C@H](C)NC(=O)[C@H](CC(C)C)NC(=O)[C@H](CCCNC(=N)N)NC(=O)[C@H](CCC(N)=O)NC(=O)[C@@H](NC(=O)[C@H](C)NC(=O)[C@@H]1CSSC[C@H](NC(=O)[C@@H](N)CCCCNC(=O)CC[C@H](NC(=O)CC[C@H](NC(=O)CCCCCCCCCCCCCCCCC(=O)O)C(=O)O)C(=O)O)C(=O)N[C@@H](CC(N)=O)C(=O)N[C@@H]([C@@H](C)O)C(=O)N[C@@H](C)C(=O)N[C@@H]([C@@H](C)O)C(=O)N1)[C@@H](C)O)C(C)C)C(=O)N[C@@H](CC(C)C)C(=O)N[C@@H](CO)C(=O)N1CCC[C@H]1C(=O)N[C@H](C(=O)N[C@@H](CC(N)=O)C(=O)N[C@H](C(=O)NCC(=O)N[C@@H](CO)C(=O)N[C@@H](CCN)C(=O)N[C@H](C(=O)N[C@@H](Cc1ccc(O)cc1)C(N)=O)[C@@H](C)O)C(C)C)[C@@H](C)O` [Peptide 124, K(γE-γE-C18diacid)[CNTATC]ATQRLANFLVHSS(Aib)NFPAILSPTNVGS(Dab)TY-amide] (H-K([γGlu-γGlu-C18 diacid])CNTATCATQRLANFLVHSS[Aib]NFPAILSPTNVGS[Dab]TY-NH2; disulfide 2-7; N-terminus assumed): in test [1], the “Ratio (selectivity hAMYR vs hCTR, ratio of EC50 values at the two receptors)” value is on record as 6 and the EC50 was 1130 pM. In addition, the EC50 in test [2] came to 6630 pM.

For `CC[C@H](C)[C@@H]1NC(=O)[C@H](CC(N)=O)NC(=O)[C@@H](NC(=O)[C@@H](N)CCCCNC(=O)CC[C@H](NC(=O)CC[C@H](NC(=O)CCCCCCCCCCCCCCCCC(=O)O)C(=O)O)C(=O)O)CSSC[C@@H](C(=O)N[C@@H](C)C(=O)N[C@H](C(=O)N[C@@H](CCC(N)=O)C(=O)N[C@@H](CCCNC(=N)N)C(=O)N[C@@H](CC(C)C)C(=O)N[C@@H](C)C(=O)N[C@@H](CC(N)=O)C(=O)N[C@@H](Cc2ccccc2)C(=O)N[C@@H](CC(C)C)C(=O)N[C@H](C(=O)N[C@@H](Cc2c[nH]cn2)C(=O)N[C@@H](CO)C(=O)N[C@@H](CO)C(=O)N[C@@H](CCN)C(=O)N[C@@H](CC(N)=O)C(=O)N[C@@H](Cc2ccccc2)C(=O)NCC(=O)N2CCC[C@H]2C(=O)N[C@H](C(=O)N[C@@H](CC(C)C)C(=O)N2CCC[C@H]2C(=O)N2CCC[C@H]2C(=O)N[C@H](C(=O)N[C@@H](CC(N)=O)C(=O)N[C@H](C(=O)NCC(=O)N[C@@H](CO)C(=O)N[C@@H](CCCNC(=N)N)C(=O)N[C@H](C(=O)N[C@@H](Cc2ccc(O)cc2)C(N)=O)[C@@H](C)O)C(C)C)[C@@H](C)O)[C@@H](C)CC)C(C)C)[C@@H](C)O)NC(=O)[C@H]([C@@H](C)O)NC(=O)[C@H](C)NC1=O` [Peptide 27, K(γE-γE-C18diacid)[CNIATC]ATQRLANFLVHSS(Dab)NFGPILPPTNVGSRTY-amide] (H-K([γGlu-γGlu-C18 diacid])CNIATCATQRLANFLVHSS[Dab]NFGPILPPTNVGSRTY-NH2; disulfide 2-7; N-terminus assumed), in test [1], the “Ratio (selectivity hAMYR vs hCTR, ratio of EC50 values at the two receptors)” value is reported as 5. Besides, the EC50 in test [1] was 134 pM; in test [2], 731 pM.

In the case of `CC[C@H](C)[C@H](NC(=O)[C@H](C)NC(=O)[C@@H]1C[C@@H](O)CN1C(=O)[C@H](Cc1ccccc1)NC(=O)[C@H](CC(N)=O)NC(=O)C(C)(C)NC(=O)[C@H](CO)NC(=O)[C@H](CO)NC(=O)[C@H](Cc1c[nH]cn1)NC(=O)[C@@H](NC(=O)[C@H](CC(C)C)NC(=O)[C@H](Cc1ccccc1)NC(=O)[C@H](CC(N)=O)NC(=O)[C@H](C)NC(=O)[C@H](CC(C)C)NC(=O)[C@H](CCCNC(=N)N)NC(=O)[C@H](CCC(N)=O)NC(=O)[C@@H](NC(=O)[C@H](C)NC(=O)[C@@H]1CSSC[C@H](NC(=O)[C@@H](N)CCCCNC(=O)CC[C@H](NC(=O)CC[C@H](NC(=O)CCCCCCCCCCCCCCCCCCC(=O)O)C(=O)O)C(=O)O)C(=O)N[C@@H](CC(N)=O)C(=O)N[C@@H]([C@@H](C)O)C(=O)N[C@@H](C)C(=O)N[C@@H]([C@@H](C)O)C(=O)N1)[C@@H](C)O)C(C)C)C(=O)N[C@@H](CC(C)C)C(=O)N[C@@H](CO)C(=O)N1CCC[C@H]1C(=O)N[C@H](C(=O)N[C@@H](CC(N)=O)C(=O)N[C@H](C(=O)NCC(=O)N[C@@H](CO)C(=O)N[C@@H](CC(N)=O)C(=O)N[C@H](C(=O)N[C@@H](Cc1ccc(O)cc1)C(N)=O)[C@@H](C)O)C(C)C)[C@@H](C)O` [Peptide 121, K(γE-γE-C20diacid)[CNTATC]ATQRLANFLVHSS(Aib)NF(Hyp)AILSPTNVGSNTY-amide] (H-K([γGlu-γGlu-C20 diacid])CNTATCATQRLANFLVHSS[Aib]NF[Hyp]AILSPTNVGSNTY-NH2; disulfide 2-7; N-terminus assumed), in test [1], the “Ratio (selectivity hAMYR vs hCTR, ratio of EC50 values at the two receptors)” value is 5 and the EC50 turned out to be 1330 pM. In addition, in test [2], the EC50 was 6070 pM.

As for `CC[C@H](C)[C@H](NC(=O)[C@@H]1CCCN1C(=O)CNC(=O)[C@H](Cc1ccccc1)NC(=O)[C@H](CC(N)=O)NC(=O)C(C)(C)NC(=O)[C@H](CO)NC(=O)[C@H](CO)NC(=O)[C@H](Cc1c[nH]cn1)NC(=O)[C@H](CO)NC(=O)[C@H](CC(C)C)NC(=O)[C@H](Cc1ccccc1)NC(=O)[C@H](CC(N)=O)NC(=O)[C@H](C)NC(=O)[C@H](CC(C)C)NC(=O)[C@H](CCCNC(=N)N)NC(=O)[C@H](CCC(N)=O)NC(=O)[C@@H](NC(=O)[C@H](C)NC(=O)[C@@H]1CSSC[C@H](NC(=O)[C@H](CCCCN)NC(=O)[C@@H](N)CCCCNC(=O)CC[C@H](NC(=O)CCCCCCCCCCCCCCCCC(=O)O)C(=O)O)C(=O)N[C@@H](CC(N)=O)C(=O)N[C@@H]([C@@H](C)O)C(=O)N[C@@H](C)C(=O)N[C@@H]([C@@H](C)O)C(=O)N1)[C@@H](C)O)C(=O)N[C@@H](CC(C)C)C(=O)N1CCC[C@H]1C(=O)N1CCC[C@H]1C(=O)N[C@H](C(=O)N[C@@H](Cc1c[nH]cn1)C(=O)N[C@H](C(=O)NCC(=O)N[C@@H](CO)C(=O)N[C@@H](CC(N)=O)C(=O)N[C@H](C(=O)N[C@@H](Cc1ccc(O)cc1)C(N)=O)[C@@H](C)O)C(C)C)[C@@H](C)O` [Peptide 51, K(γE-C18diacid)K[CNTATC]ATQRLANFLSHSS(Aib)NFGPILPPTHVGSNTY-amide] (H-K([γGlu-C18 diacid])KCNTATCATQRLANFLSHSS[Aib]NFGPILPPTHVGSNTY-NH2; disulfide 3-8; N-terminus assumed), in test [1], the “Ratio (selectivity hAMYR vs hCTR, ratio of EC50 values at the two receptors)” value turned out to be 13 and the EC50 is 126 pM. Besides, the EC50 in test [2] was 1640 pM.
